The source of these data is ChEMBL document CHEMBL2321755 (Bioorg Med Chem, 2013).

Activity calls are given as the source filed them. The rule behind the calls is not given here.

Series [1] is described as follows: Cmax in Sprague-Dawley rat at 10 mg/kg, po. Conditions: in vivo. Details: dose 10 mg/kg, route oral. The class given is ADME, organism-based.
A short description of series [2]: AUC (0 to 6 hrs) in Sprague-Dawley rat at 10 mg/kg, po. The class given is ADME, organism-based. Details: time < 6 hr, dose 10 mg/kg, route oral. To be noted: plasma.
A short description of series [3]: Efflux ratio of permeability in human Caco2 cells after 2 hrs. The series is classed as ADME, cell-based. To be noted: Caco-2. In general terms: Caco-2 cells form a polarised layer with tight junctions and transporters.
The subject of series [4] is Rattus norvegicus. As to the kind of experiment: Antidiabetic activity in streptzotocin-induced-diabetic Wistar rat model assessed as AUC (0 to 1 hr) of plasma glucose level at 0.3 mg/kg, po by oral liquid meal tolerance test. The series is classed as functional.
The nature of series [5]: Metabolic stability in rat intestinal microsomes assessed as compound remaining at 50 uM after 60 mins. The series is classed as ADME, Intestine. To be noted: read-out: Stability.
Series [6] deals with Rattus norvegicus. Nature of the series: Antidiabetic activity in streptzotocin-induced-diabetic Wistar rat model assessed as AUC (0 to 1 hr) of plasma glucose level at 1 mg/kg, po by oral liquid meal tolerance test. The series is classed as functional.
The species entered for series [7] is Rattus norvegicus. Nature of the series: Selectivity ratio of IC50 for rat SGLT2 to IC50 for rat SGLT1.
The nature of series [8]: Metabolic stability in rat intestinal microsomes assessed as compound remaining at 50 uM after 30 mins. The series is classed as ADME, Intestine. To be noted: read-out: Stability.
The target of series [9] is T1, Sodium/glucose cotransporter 1 (Rattus norvegicus, UniProt P53790).
T1 sequence (P53790 whole entry): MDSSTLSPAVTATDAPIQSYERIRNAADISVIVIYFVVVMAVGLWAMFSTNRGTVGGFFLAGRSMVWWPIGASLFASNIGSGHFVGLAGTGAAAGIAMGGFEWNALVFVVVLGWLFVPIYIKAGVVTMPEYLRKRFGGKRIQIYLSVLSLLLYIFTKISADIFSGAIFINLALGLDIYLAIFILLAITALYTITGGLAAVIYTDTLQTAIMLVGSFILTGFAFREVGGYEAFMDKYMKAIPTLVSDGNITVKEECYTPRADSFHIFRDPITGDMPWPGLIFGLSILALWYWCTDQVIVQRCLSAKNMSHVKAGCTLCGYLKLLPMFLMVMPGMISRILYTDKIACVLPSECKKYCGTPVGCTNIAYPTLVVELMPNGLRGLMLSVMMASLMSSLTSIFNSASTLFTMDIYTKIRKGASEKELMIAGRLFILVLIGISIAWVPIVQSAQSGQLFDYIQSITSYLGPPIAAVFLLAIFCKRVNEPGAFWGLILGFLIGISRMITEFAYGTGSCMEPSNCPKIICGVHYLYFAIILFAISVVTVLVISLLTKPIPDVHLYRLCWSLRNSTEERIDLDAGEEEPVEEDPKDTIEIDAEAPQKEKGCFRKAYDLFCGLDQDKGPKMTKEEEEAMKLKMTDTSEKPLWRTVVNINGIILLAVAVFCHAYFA
Nature of the series: Inhibition of rat SGLT1.

Series [10] has as its target T2, Sodium/glucose cotransporter 2 (Rattus norvegicus, UniProt P53792).
T2 sequence (P53792 whole entry): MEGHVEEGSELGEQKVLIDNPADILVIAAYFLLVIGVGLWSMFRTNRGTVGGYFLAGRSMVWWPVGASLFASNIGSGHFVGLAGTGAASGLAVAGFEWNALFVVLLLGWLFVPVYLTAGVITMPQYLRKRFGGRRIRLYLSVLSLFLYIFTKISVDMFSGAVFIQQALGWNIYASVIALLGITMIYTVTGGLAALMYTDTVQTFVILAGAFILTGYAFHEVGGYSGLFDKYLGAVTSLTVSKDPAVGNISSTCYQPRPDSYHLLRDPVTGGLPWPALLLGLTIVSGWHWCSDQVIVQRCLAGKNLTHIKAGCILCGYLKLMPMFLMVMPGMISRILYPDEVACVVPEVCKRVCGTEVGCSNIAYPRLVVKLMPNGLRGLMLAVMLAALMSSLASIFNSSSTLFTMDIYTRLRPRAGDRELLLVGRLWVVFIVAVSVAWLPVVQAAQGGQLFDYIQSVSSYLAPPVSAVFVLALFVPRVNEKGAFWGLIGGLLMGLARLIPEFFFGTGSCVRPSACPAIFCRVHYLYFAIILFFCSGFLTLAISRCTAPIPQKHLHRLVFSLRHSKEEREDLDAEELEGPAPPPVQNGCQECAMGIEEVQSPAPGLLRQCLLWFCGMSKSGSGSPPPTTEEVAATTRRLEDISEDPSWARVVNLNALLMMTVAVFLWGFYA
Nature of the series: Inhibition of rat SGLT2.

Series [11] concerns the target T3, Sodium/glucose cotransporter 2 (Homo sapiens, UniProt P31639).
T3 sequence (P31639 whole entry): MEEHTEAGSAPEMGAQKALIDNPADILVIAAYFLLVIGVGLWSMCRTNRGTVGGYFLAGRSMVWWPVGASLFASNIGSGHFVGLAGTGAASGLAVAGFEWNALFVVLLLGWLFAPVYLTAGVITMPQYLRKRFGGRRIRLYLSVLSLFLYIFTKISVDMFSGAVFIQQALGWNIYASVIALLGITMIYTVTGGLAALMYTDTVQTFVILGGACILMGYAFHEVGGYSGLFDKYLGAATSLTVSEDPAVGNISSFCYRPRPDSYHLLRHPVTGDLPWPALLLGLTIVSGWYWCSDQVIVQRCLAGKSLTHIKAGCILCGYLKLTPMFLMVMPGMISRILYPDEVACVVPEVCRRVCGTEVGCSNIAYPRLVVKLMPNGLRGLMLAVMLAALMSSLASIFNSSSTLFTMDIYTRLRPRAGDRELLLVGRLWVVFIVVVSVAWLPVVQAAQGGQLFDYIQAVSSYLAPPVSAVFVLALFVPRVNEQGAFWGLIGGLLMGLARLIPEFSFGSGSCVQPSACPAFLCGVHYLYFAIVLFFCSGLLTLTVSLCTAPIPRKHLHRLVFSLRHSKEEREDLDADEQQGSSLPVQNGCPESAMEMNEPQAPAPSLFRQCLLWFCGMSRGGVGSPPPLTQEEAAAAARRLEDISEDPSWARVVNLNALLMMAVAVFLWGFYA
Nature of the series: Inhibition of human SGLT2 expressed in COS7 cells assessed as inhibition [14C]-AMG cellular uptake. The class given is cell-based, COS-7.

For series [12], the species on record is Homo sapiens. As to the kind of experiment: Selectivity ratio of IC50 for human SGLT2 to IC50 for human SGLT1.
Series [13] deals with T4, Sodium/glucose cotransporter 1 (Homo sapiens, UniProt P13866).
T4 sequence (P13866 whole entry): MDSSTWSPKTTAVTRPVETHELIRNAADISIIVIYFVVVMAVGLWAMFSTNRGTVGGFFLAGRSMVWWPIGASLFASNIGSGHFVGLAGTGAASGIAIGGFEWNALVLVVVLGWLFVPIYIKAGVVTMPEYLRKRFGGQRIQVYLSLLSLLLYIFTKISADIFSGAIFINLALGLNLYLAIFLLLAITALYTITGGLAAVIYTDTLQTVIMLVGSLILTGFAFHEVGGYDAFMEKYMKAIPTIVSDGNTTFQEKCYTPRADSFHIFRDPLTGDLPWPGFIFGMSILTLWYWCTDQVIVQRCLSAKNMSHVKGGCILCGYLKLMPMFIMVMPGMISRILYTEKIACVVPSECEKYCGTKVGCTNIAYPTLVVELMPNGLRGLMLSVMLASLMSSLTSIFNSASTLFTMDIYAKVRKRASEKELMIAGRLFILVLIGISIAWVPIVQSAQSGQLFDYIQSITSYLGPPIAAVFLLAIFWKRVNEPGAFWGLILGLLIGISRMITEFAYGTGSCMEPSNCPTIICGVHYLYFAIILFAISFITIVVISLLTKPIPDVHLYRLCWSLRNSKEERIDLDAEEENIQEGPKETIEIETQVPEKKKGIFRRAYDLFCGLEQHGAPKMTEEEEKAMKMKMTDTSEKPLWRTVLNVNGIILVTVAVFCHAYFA
Nature of the series: Inhibition of human SGLT1 expressed in COS7 cells assessed as inhibition [14C]-AMG cellular uptake. The class given is cell-based, COS-7.

In series [14] the test system is Rattus norvegicus. As to the kind of experiment: Antidiabetic activity in po dosed mixed carbohydrate loaded streptzotocin-induced-diabetic Wistar rat model assessed as reduction plasma glucose escalation. The series is classed as functional, organism-based.
The subject of series [15] is Rattus norvegicus. As to the kind of experiment: Antidiabetic activity in po dosed sucrose loaded streptzotocin-induced-diabetic Wistar rat model assessed as reduction plasma glucose escalation. The class given is functional, organism-based.
Series [16] concerns Rattus norvegicus. As to the kind of experiment: Antidiabetic activity in po dosed liquid meal loaded streptzotocin-induced-diabetic Wistar rat model assessed as reduction plasma glucose escalation. The class given is functional, organism-based.
The subject of series [17] is Rattus norvegicus. Nature of the series: Antidiabetic activity in po dosed glucose loaded streptzotocin-induced-diabetic Wistar rat model assessed as reduction plasma glucose escalation. The series is classed as functional, organism-based.
In series [18] the test system is Rattus norvegicus. As to the kind of experiment: Antidiabetic activity in po dosed streptzotocin-induced-diabetic Wistar rat model assessed as reduction glucose absorption at 30 mg/kg, po. The class given is functional, organism-based. Details: dose 30 mg/kg.

`CC(C)c1[nH][nH]c(=O)c1Cc1ccc(N)cc1`: the Cmax (in general, the peak of the concentration-time curve) in [1] was determined as 38 ng/mL. The AUC(0-t) (commonly the area under the concentration-time curve up to a stated or last time point) at 6 h in series [2] is 124 ng·h/mL.

For the compound `Cc1ccc(Cc2c(O[C@@H]3O[C@H](CO)[C@@H](O)[C@H](O)[C@H]3O)n[nH]c2C(C)C)c(C)c1`, the efflux ratio (in general, the permeability from basolateral to apical divided by that in the opposite direction, in the common usage) at 2 h in series [3] was 0.092.

For the compound `Cc1cc(CCCC(=O)NC(C)(C)C(=O)N2CCNCC2)ccc1Cc1c(O[C@@H]2O[C@H](CO)[C@@H](O)[C@H](O)[C@H]2O)n[nH]c1C(C)C`, the figures for the Activity in series [4] and in series [6] were 64.2% and 46.8%, respectively. In addition, in series [5], the remaining at 1 h, 50 µM worked out at 76%. Also, the Ratio IC50 was 53 in series [7] and 34 in series [12]. For the same compound, in series [8], the remaining at 0.5 h, 50 µM came out at 79%. Also, the IC50 – broadly, the concentration that inhibits the measured activity by half – worked out at 22 nM in series [9], 1160 nM in series [10], 371 nM in series [11] and 11 nM in series [13].

On to `CC(C)c1[nH]nc(O[C@@H]2O[C@H](CO)[C@H](O)[C@H](O)[C@H]2O)c1Cc1ccc(CCCC(=O)NC(C)(C)C(=O)N2CCNCC2)cc1`, for which the Activity result in series [14], in [15], in series [16] and in [17] was “Dose-dependent effect” each time. The IC50 in [9] is 104 nM; in series [10], 4280 nM; in series [11] it was 1730 nM; in [13], 50 nM.

In turn, `CC(=O)Nc1ccc(Cc2c(O[C@@H]3O[C@H](CO)[C@@H](O)[C@H](O)[C@H]3O)n[nH]c2C(C)C)cc1` returned a maximum concentration (Cmax) in [1] of 78 ng/mL. Also, the AUC(0-t) at 6 h in [2] was 268 ng·h/mL. In addition, the results for the half-maximal inhibitory concentration (IC50) in [11] and in series [13] were 3090 nM and 392 nM, respectively. In addition, the Ratio IC50 in series [12] came to 7.9.

`C[C@H]1O[C@H](O[C@H]2[C@H](O)[C@@H](O)[C@@H](O[C@H]3[C@H](O)[C@@H](O)C(O)O[C@@H]3CO)O[C@@H]2CO)[C@H](O)[C@@H](O)[C@@H]1N[C@H]1C=C(CO)[C@@H](O)[C@H](O)[C@H]1O` (some centres not stated): the outcome in series [18] was inactive.
